Results on 4 compounds are retold here after patent EP2072513A1, “A cyano piperidinyl-phenil-oxazolidinone and use thereof” (Ferrer Internacional, S.A., priority 2007, dated 2009).

For data set [1], the system named is S. aureus ATCC 25923 MS 319. Briefly: MIC, standard micro dilution method (NCCLS M7-A5). Type of data set: cell-based. Particulars: Staphylococcus aureus, ATCC25923.
The subject of data set [2] is S. aureus ATCC 43300 MR 214. Briefly: MIC, standard micro dilution method (NCCLS M7-A5). Type of data set: cell-based. Particulars: Staphylococcus aureus, ATCC43300.
In data set [3] the test system is S. aureus clinical strain cfr methylase 432. Briefly: MIC, standard micro dilution method (NCCLS M7-A5). The format is cell-based. Particulars: Staphylococcus aureus; S. aureus clinical strain cfr methylase 432 (linezolid-resistant).
For data set [4], the system named is S. epidermidis ATCC 12228 MR 11. Briefly: MIC, standard micro dilution method (NCCLS M7-A5). The format is cell-based. Particulars: Staphylococcus epidermidis, ATCC12228.
For data set [5], the system named is S. pneumoniae ATCC 49619 PR 215. Briefly: MIC, standard micro dilution method (NCCLS M7-A5). Type of data set: cell-based. The following applies: Streptococcus pneumoniae, ATCC49619.
Data set [6] has as its system E. faecalis ATCC 29212 53. Kind of data set: MIC, standard micro dilution method (NCCLS M7-A5). The following applies: Enterococcus faecalis, ATCC29212. Type of data set: cell-based.
The next data set concerns E. faecium ATCC 10541 13. Briefly: MIC, standard micro dilution method (NCCLS M7-A5). The format is cell-based. The following applies: Enterococcus faecium, ATCC10541.
The subject of data set [7] is B. fragilis ATCC 25285 A12. Briefly: MIC, standard micro dilution method (NCCLS M7-A5). Particulars: Bacteroides fragilis, ATCC25285; B. fragilis ATCC 25285 A12, anaerobic, Brucella Blood medium. Type of data set: cell-based.
Data set [8] relates to Moraxella catarrhalis HCl-78 259/339. Kind of data set: MIC, standard micro dilution method (NCCLS M7-A5). The format is cell-based. Particulars: HCL78259/339.
A further data set deals with T1, human MAO-A (Homo sapiens, UniProt P21397).
T1 construct: purchased Gentest, BD, USA; host or cells: SF9 insect cells (membranes)
T1 sequence (P21397 1-527): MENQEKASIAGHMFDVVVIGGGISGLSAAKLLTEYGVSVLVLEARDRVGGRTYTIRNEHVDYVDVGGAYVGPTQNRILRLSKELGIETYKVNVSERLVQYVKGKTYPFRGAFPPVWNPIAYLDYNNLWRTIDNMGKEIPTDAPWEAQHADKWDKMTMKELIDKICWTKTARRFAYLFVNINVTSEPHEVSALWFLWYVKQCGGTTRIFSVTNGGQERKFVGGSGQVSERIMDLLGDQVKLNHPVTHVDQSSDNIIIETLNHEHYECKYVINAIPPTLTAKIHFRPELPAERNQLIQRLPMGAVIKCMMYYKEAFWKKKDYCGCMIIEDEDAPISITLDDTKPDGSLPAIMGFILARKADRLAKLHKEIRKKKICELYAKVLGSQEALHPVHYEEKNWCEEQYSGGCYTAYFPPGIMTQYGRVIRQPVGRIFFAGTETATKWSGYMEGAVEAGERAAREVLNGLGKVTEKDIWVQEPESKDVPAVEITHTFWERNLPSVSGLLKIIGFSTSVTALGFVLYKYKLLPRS
Kind of data set: In vitro MAO-A enzymatic activity (kynuramine substrate, fluorescence). Type of data set: biochemical. The following applies: membranes from SF9 cells, kynuramine 30 µM, 37° 40 min. On the procedure: (§1) MAO-A and MAO-B enzymatic activities were measured using membranes obtained from SF9 cells expressing either human MAO-A or human MAO-B (Gentest, BD, USA). Assays were done in blank 96-well micro titter plates using kynuramine as substrate and measuring the formation of 4-hydroxyquinoline by fluorescence at 340 nm/465 nm. Briefly, membranes with MAO-A (0.006 mg/mL protein) and MAO-B (0.015 mg/mL protein) were incubated with kynuramine, 30 µM, at 37° for 40 min in the presence of the compound in a final volume of 200 µL. Reactions were stopped by adding NaOH 2N and the reaction product, 4-hydroxyquinoline, was determined by fluorometry using a Tecan Ultra reader.

For the next data set, the target named is T2, human MAO-B (Homo sapiens, UniProt P27338).
T2 construct: purchased Gentest, BD, USA; host or cells: SF9 insect cells (membranes)
T2 sequence (P27338 1-520): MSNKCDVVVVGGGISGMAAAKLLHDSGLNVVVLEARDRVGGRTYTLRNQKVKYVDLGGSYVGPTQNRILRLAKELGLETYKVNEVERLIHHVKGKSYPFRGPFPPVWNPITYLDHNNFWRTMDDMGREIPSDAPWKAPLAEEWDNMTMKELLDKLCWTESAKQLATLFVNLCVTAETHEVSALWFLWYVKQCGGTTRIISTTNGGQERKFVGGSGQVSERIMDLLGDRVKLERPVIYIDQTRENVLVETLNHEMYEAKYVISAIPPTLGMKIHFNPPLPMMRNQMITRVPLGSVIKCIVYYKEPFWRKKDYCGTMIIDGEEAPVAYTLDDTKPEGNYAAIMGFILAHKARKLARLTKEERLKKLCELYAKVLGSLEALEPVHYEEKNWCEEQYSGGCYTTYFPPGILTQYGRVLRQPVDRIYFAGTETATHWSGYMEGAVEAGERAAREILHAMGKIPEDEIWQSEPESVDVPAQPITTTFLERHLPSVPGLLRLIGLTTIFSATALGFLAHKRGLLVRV
Kind of data set: In vitro MAO-B enzymatic activity (kynuramine substrate, fluorescence). The format is biochemical. The following applies: membranes from SF9 cells, kynuramine 30 µM, 37° 40 min. On the procedure:
as §1

Data set [9] relates to Moxarella, Pasteurella and Bacteroides spp. The following applies: cited from earlier work.
Data set [10] in a line: Equilibrium solubility of polymorphic forms in solvent systems. The format is physicochemical. On the procedure:
Table 1: Equilibrium solubilities of polymorphic form B. Solubility studies were also performed for polymorphic form A. In Table 2 appear the data obtained. Table 2: Equilibrium solubilities of polymorphic form A.

Data set [11] in a line: Suspension equilibration experiments (relative stability of polymorphic forms). The format is physicochemical. Particulars: at room temperature (17-30 °C). An excerpt: However, a mixture of polymorphic form A and B in water slowly converted into pure polymorphic form B as well. Similarly, a suspension containing a mixture of polymorphic forms B and C in ethanol converted into polymorphic form B after some time.

pKi: −log10 of the molar value. Values after ≈ are worked out from the molar mass of the structure shown. Where two headings read alike, the source gives them in different places.

What is called MIC is the lowest concentration found to suppress growth. Lower therefore signals greater potency. Broadly, the pKi is the Ki on a negative log10 scale, so that one unit is a factor of ten. Lower therefore signals a high Ki. `CC(=O)NC[C@H]1CN(c2ccc(N3CCC(C#N)CC3)c(F)c2)C(=O)O1` [Compound (Ia), (S)-N-{3-[4-(4-cyano-piperidin-1-yl)-3-fluoro-phenyl]-2-oxo-oxazolidin-5-ylmethyl}-acetamide]: the MIC was 1 µg/mL (≈ 2.77 µM) in data set [1]; 1 µg/mL (≈ 2.77 µM) in data set [2]; 2 µg/mL (≈ 5.55 µM) in [3]; 1 µg/mL (≈ 2.77 µM) in data set [4]; 0.5 µg/mL (≈ 1.39 µM) in [5]; 1 µg/mL (≈ 2.77 µM) in data set [6]. Further, the results for the MIC (with E. faecium ATCC 10541 13; in data set [7]; in data set [8]) were 0.5 µg/mL (≈ 1.39 µM), 1 µg/mL (≈ 2.77 µM) and 1 µg/mL (≈ 2.77 µM), respectively. The pKi on human MAO-A was 5.98; at human MAO-B, 5.61.

As for `CC(=O)NC[C@H]1CN(c2ccc(N3CCOCC3)c(F)c2)C(=O)O1` [Linezolid, N-[[(5S)-3-[3-fluoro-4-(4-morpholinyl)phenyl]-2-oxo-5-oxazolidinyl]methyl]acetamide, reference compound], the MIC in data set [1] is 1 µg/mL (≈ 2.96 µM); in data set [2], 1 µg/mL (≈ 2.96 µM); in [3] it was 16 to 32 µg/mL (≈ 47.4 to 94.9 µM); in data set [4], 1 µg/mL (≈ 2.96 µM); in data set [5], 1 µg/mL (≈ 2.96 µM); in data set [6] it was 0.5 µg/mL (≈ 1.48 µM). The MIC against E. faecium ATCC 10541 13 was 1 µg/mL (≈ 2.96 µM); in data set [7], 2 µg/mL (≈ 5.93 µM); in [8], 2 µg/mL (≈ 5.93 µM). The compound also gave a pKi on human MAO-A of 5.16. In addition, in [9], the MICs was 2 to 8 µg/mL.

For orientation: Solubility means the concentration that dissolves in the medium under given conditions. Regarding `CC(=O)NC[C@H]1CN(c2ccc(N3CCC(C#N)CC3)c(F)c2)C(=O)O1` [polymorphic form A, (S)-N-{3-[4-(4-cyano-piperidin-1-yl)-3-fluoro-phenyl]-2-oxo-oxazolidin-5-ylmethyl}-acetamide], the “Solubility” value in [10] (Ethanol) was 6300 to 7300 µg/mL; in [10] (Ethyl acetate) it was 11800 to 15400 µg/mL; in data set [10] (Water (Fluka 95305), pH 8.9) it was 390 µg/mL (≈ 1080 µM); in data set [10] (water, pH 8.7, water, thermodynamic from solid, Water (Fluka 95305), pH 8.7, read-out: Solubility), 400 µg/mL (≈ 1110 µM).

Take `CC(=O)NC[C@H]1CN(c2ccc(N3CCC(C#N)CC3)c(F)c2)C(=O)O1` [polymorphic form B, (S)-N-{3-[4-(4-cyano-piperidin-1-yl)-3-fluoro-phenyl]-2-oxo-oxazolidin-5-ylmethyl}-acetamide]: the “Solubility” value in data set [10] (Ethanol) worked out at 2600 µg/mL (≈ 7210 µM); in data set [10] (Ethyl acetate) it was 2900 µg/mL (≈ 8050 µM); in data set [10] (water, pH 8.9, water, thermodynamic from solid, Water (Fluka 95305), pH 8.9, read-out: Solubility) it was 240 µg/mL (≈ 666 µM). In data set [11], the “relative stability of the polymorphic forms” value was “the most stable one”.
